This is an account of results in patent US10975056B2 (GlaxoSmithKline Intellectual Property Development Limited, priority 2016, dated 2021).

One assay concerns the target DNMT1 (Homo sapiens, UniProt P26358). The experiment in a line: DNMT1 biochemical activity, breaklight assay and/or SPA assay.
Assay [1] concerns erythroid progenitor cells (EPCs). Nature of the assay: Fetal hemoglobin (HbF) ELISA in day 7 erythroid progenitor cells. In kind it is cell-based, human. Particulars: Homo sapiens, Erythroid progenitor cell, read-out: EPC ELISA (pEC50 category) (converted). In short, it runs like this: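 HbF induction was read by anti-HbF sandwich ELISA (HRP/TMB, OD450) on lysates and normalized to vehicle-treated cells. Cells were day 7 erythroid progenitors derived from human bone marrow CD34+ cells, seeded at 1,000/well with 3 U/mL rhEPO. Compound was given for 5 days at 37 °C at final concentrations […].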

The mark [2] stands for this setting: binned activity in either the breaklight or the SPA assay.
Setting [3] is: binned activity in either the breaklight or the SPA assay, read-out: DNMT1 BioChemical (pIC50 category) (converted).
Setting [4] is: breaklight assay and/or SPA assay, repeated experimental runs, read-out: average pIC50 against DNMT1 (converted).

Values joined by “and” are separate entries in the source; they are usually repeats but may differ in a detail not shown here. Equal values may be shown once. Where a name gives a salt, the structure may show the parent alone. Read-outs that look alike come from different tables or passages of the source.

Chain of DNMT1 (P26358 whole entry, looked up): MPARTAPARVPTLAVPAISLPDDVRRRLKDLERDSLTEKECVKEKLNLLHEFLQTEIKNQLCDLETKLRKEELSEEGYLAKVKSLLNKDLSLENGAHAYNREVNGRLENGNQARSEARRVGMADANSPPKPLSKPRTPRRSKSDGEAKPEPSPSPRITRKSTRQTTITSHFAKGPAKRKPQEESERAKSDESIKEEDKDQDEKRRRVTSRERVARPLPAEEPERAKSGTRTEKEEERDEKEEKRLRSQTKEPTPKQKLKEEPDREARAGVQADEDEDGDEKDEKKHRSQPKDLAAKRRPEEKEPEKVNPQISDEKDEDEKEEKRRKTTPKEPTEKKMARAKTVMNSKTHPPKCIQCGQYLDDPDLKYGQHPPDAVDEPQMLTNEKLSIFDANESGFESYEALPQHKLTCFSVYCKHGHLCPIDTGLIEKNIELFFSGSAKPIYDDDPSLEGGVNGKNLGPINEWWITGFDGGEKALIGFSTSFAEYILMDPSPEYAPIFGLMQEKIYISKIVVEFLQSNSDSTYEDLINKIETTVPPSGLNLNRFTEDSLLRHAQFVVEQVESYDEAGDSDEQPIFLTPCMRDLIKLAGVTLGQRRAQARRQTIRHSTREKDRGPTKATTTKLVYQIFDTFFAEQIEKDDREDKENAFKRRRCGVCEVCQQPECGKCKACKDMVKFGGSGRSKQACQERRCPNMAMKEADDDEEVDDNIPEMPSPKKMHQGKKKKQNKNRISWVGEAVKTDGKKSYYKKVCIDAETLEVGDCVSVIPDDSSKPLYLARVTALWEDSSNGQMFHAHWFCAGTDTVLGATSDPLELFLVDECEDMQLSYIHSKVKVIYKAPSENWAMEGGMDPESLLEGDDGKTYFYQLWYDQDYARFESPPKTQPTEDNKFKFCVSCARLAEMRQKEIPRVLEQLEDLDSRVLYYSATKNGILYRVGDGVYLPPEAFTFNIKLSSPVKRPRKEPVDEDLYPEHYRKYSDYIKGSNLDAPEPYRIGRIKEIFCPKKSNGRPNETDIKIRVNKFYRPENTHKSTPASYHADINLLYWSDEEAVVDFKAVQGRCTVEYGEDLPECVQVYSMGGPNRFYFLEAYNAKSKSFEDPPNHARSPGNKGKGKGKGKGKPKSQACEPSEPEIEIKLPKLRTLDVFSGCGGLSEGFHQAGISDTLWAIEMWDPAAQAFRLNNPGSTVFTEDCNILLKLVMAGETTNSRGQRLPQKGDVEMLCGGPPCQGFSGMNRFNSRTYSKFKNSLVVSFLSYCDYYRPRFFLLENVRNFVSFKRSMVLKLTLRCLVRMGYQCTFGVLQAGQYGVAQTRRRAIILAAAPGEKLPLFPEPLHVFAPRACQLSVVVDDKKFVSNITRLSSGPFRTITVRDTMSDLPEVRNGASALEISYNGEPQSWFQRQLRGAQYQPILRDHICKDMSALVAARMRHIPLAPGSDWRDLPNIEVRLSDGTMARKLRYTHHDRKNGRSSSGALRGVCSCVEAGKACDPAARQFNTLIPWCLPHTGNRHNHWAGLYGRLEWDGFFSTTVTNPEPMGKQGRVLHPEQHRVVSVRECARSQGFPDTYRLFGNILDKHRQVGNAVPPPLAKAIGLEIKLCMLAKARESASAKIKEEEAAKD

Take `CCc1c(C#N)c(SC(C(N)=O)c2ccccc2)nc(N2CC(CO)C2)c1C#N` (stereo not shown) [Example 262, 2-((3,5-Dicyano-4-ethyl-6-(3-(hydroxymethyl)azetidin-1-yl)pyridin-2-yl)thio)-2-phenylacetamide]: the “DNMT1 BioChemical (pIC50 category)” value on DNMT1 (setting [2]) is reported as “D (Category D: ≥6.5)”. In addition, in assay [1] (HbF ELISA, day 7 EPCs, 5 days), the EC50 was 1000 to 31600 nM.

Regarding `CCc1c(C#N)c(SC(C(N)=O)c2ccccc2)nc(SC(C(N)=O)c2ccccc2)c1C#N` (stereo not shown) [Example 276, 2,2′-((3,5-Dicyano-4-ethylpyridine-2,6-diyl)bis(sulfanediyl))bis(2-phenylacetamide)], the IC50 on DNMT1 (setting [3]) is 316 to 1000 nM. The EC50 in assay [1] (HbF ELISA, day 7 EPCs, 5 days) is over 31600 nM.

As for `CCc1c(C#N)c(SC(C(N)=O)c2ccccc2)nc(N2CCO[C@H](CN(CC)CC)C2)c1C#N` (stereo partly drawn) [Example 578, 2-((3,5-dicyano-6-((R)-2-((diethylamino)methyl)morpholino)-4-ethylpyridin-2-yl)thio)-2-phenylacetamide], at DNMT1 (setting [2]), the “DNMT1 BioChemical (pIC50 category)” value was “D (Category D: ≥6.5)”. For the same compound, the EC50 in assay [1] (HbF ELISA, day 7 EPCs, 5 days) is under 316 nM.

Consider `CCc1c(C#N)c(SC(C(N)=O)c2ccccc2)nc(N(C)CCN2CC[C@@H](N)C2)c1C#N` (stereo partly drawn) [Example 529, 2-((6-((2-((R)-3-aminopyrrolidin-1-yl)ethyl)(methyl)amino)-3,5-dicyano-4-ethylpyridin-2-yl)thio)-2-phenylacetamide], for which the “DNMT1 BioChemical (pIC50 category)” value at DNMT1 (setting [2]) was “D (Category D: ≥6.5)”. Also, in assay [1] (HbF ELISA, day 7 EPCs, 5 days), the EC50 was 316 to 1000 nM.

For the compound `CCc1c(C#N)c(SC(C(N)=O)c2ccccc2)nc(N2CCC(NC(C)(C)C(=O)OC)CC2)c1C#N` (stereo not shown) [Example 487, methyl 2-((1-(6-((2-amino-2-oxo-1-phenylethyl)thio)-3,5-dicyano-4-ethylpyridin-2-yl)piperidin-4-yl)amino)-2-methylpropanoate], the “DNMT1 BioChemical (pIC50 category)” value at DNMT1 (setting [2]) was “D (Category D: ≥6.5)”. Also, in assay [1] (HbF ELISA, day 7 EPCs, 5 days), the EC50 was under 316 nM.

As to `CCc1c(C#N)c(SC(C(N)=O)c2ccccc2)nc(N2CCC3(CCNC3)CC2)c1C#N.O=C(O)C(F)(F)F` (stereo not shown) [Example 17, 2-((3,5-dicyano-4-ethyl-6-(2,8-diazaspiro[4.5]decan-8-yl)pyridin-2-yl)thio)-2-phenylacetamide; 2,2,2-trifluoroacetic acid], the “DNMT1 BioChemical (pIC50 category)” value at DNMT1 (setting [2]) is given as “D (Category D: ≥6.5)”. For the same compound, the EC50 in assay [1] was under 316 nM.

As for `CCc1c(C#N)c(SC(C(N)=O)c2ccccc2)nc(N2CCN(Cc3cnco3)CC2)c1C#N` (stereo not shown) [Example 184, 2-((3,5-Dicyano-4-ethyl-6-(4-(oxazol-5-ylmethyl)piperazin-1-yl)pyridin-2-yl)thio)-2-phenylacetamide], the IC50 on DNMT1 (setting [3]) was 316 to 1000 nM. For the same compound, in assay [1] (HbF ELISA, day 7 EPCs, 5 days), the EC50 is 316 to 1000 nM.

Turning to `CCc1c(C#N)c(SC(C(N)=O)c2ccccc2)nc(N2CCC(O)(CO)CC2)c1C#N` (stereo not shown) [Example 240, 2-((3,5-Dicyano-4-ethyl-6-(4-hydroxy-4-(hydroxymethyl)piperidin-1-yl)pyridin-2-yl)thio)-2-phenylacetamide], the IC50 at DNMT1 (setting [3]) is 316 to 1000 nM. Further, in assay [1] (HbF ELISA, day 7 EPCs, 5 days), the EC50 is 1000 to 31600 nM.

On to `CCc1c(C#N)c(SCc2ccc(N3CCN(C)CC3)cc2)nc(N2CCCN(C)CC2)c1C#N` [Example 384, 4-Ethyl-2-(4-methyl-1,4-diazepan-1-yl)-6-((4-(4-methylpiperazin-1-yl)benzyl)thio)pyridine-3,5-dicarbonitrile], for which the IC50 at DNMT1 (setting [3]) is 316 to 1000 nM. For the same compound, the EC50 in assay [1] (HbF ELISA, day 7 EPCs, 5 days) is over 31600 nM.

For the compound `CCc1c(C#N)c(SCc2ccc(N(C)S(C)(=O)=O)cc2)nc(N2CCOC(CN(C)C)C2)c1C#N` (stereo not shown) [Example 571, N-(4-(((3,5-dicyano-6-(2-((dimethylamino)methyl)morpholino)-4-ethylpyridin-2-yl)thio)methyl)phenyl)-N-methylmethanesulfonamide], the “DNMT1 BioChemical (pIC50 category)” value at DNMT1 (setting [2]) was “D (Category D: ≥6.5)”. In addition, in assay [1] (HbF ELISA, day 7 EPCs, 5 days), the EC50 is under 316 nM.

Consider `CCc1c(C#N)c(SC(C(N)=O)c2ccccc2)nc(N2CCN(Cc3cnc[nH]3)CC2)c1C#N` (stereo not shown) [Example 188, 2-((6-(4-((1H-lmidazol-5-yl)methyl)piperazin-1-yl)-3,5-dicyano-4-ethylpyridin-2-yl)thio)-2-phenylacetamide], for which, at DNMT1 (setting [3]), the IC50 is 316 to 1000 nM. Further, the EC50 in assay [1] (HbF ELISA, day 7 EPCs, 5 days) was 1000 to 31600 nM.

Take `CCc1c(C#N)c(SCc2ccc(N(C)S(C)(=O)=O)cc2)nc(N2CCOC(CN(CC)CC)C2)c1C#N` (stereo not shown) [Example 580, N-(4-(((3,5-dicyano-6-(2-((diethylamino)methyl)morpholino)-4-ethylpyridin-2-yl)thio)methyl)phenyl)-N-methylmethanesulfonamide]: the “DNMT1 BioChemical (pIC50 category)” value at DNMT1 (setting [2]) was “D (Category D: ≥6.5)”. Further, the EC50 in assay [1] (HbF ELISA, day 7 EPCs, 5 days) is under 316 nM.

As for `CCc1c(C#N)c(SC(C(N)=O)c2ccccc2)nc(N2CCCN(CC(=O)OC)CC2)c1C#N` (stereo not shown) [Example 108, Methyl 2-[4-(6-{[carbamoyl(phenyl)methyl]sulfanyl}-3,5-dicyano-4-ethylpyridin-2-yl)-1,4-diazepan-1-yl]acetate], the IC50 at DNMT1 (setting [3]) was 1000 to 31600 nM; at DNMT1 (setting [4]), at least 1000 nM. Further, the EC50 in assay [1] (HbF ELISA, day 7 EPCs, 5 days) was 316 to 1000 nM.

In the case of `CCc1c(C#N)c(SC(C(N)=O)c2ccccc2)nc(N2C[C@@H](O)[C@@H](O)C2)c1C#N` (stereo partly drawn) [Example 219, 2-((3,5-Dicyano-6-((3S,4R)-3,4-dihydroxypyrrolidin-1-yl)-4-ethylpyridin-2-yl)thio)-2-phenylacetamide], the IC50 at DNMT1 (setting [3]) is 316 to 1000 nM. The EC50 in assay [1] (HbF ELISA, day 7 EPCs, 5 days) is 1000 to 31600 nM.

In the case of `CN(CC(=O)NCCN)c1nc(SC(C(N)=O)c2ccccc2)c(C#N)c(C2CC2)c1C#N` (stereo not shown) [Example 619, 2-((6-((2-amino-2-oxo-1-phenylethyl)thio)-3,5-dicyano-4-cyclopropylpyridin-2-yl)(methyl)amino)-N-(2-aminoethyl)acetamide hydrochloride], the “DNMT1 BioChemical (pIC50 category)” value at DNMT1 (setting [2]) was “D (Category D: ≥6.5)”. Besides, the EC50 in assay [1] (HbF ELISA, day 7 EPCs, 5 days) was 1000 to 31600 nM.

On to `CCc1c(C#N)c(SC(C(N)=O)c2ccccc2)nc(N(C)CC(=O)N2C[C@H](O)C[C@H](O)C2)c1C#N` (stereo partly drawn) [Example 659, 2-((3,5-dicyano-6-((2-((3R,5S)-3,5-dihydroxypiperidin-1-yl)-2-oxoethyl)(methyl)amino)-4-ethylpyridin-2-yl)thio)-2-phenylacetamide], for which the “DNMT1 BioChemical (pIC50 category)” value on DNMT1 (setting [2]) is recorded as “D (Category D: ≥6.5)”. Besides, the EC50 in assay [1] (HbF ELISA, day 7 EPCs, 5 days) was under 316 nM.

With `CCc1c(C#N)c(SC(C(N)=O)c2ccccc2)nc(N2CCC(OCCOP(=O)(O)O)CC2)c1C#N` (stereo not shown) [Example 154, 2-((1-(6-((2-Amino-2-oxo-1-phenylethyl)thio)-3,5-dicyano-4-ethylpyridin-2-yl)piperidin-4-epoxy)ethyldihydrogen phosphate], on DNMT1 (setting [3]), the IC50 is 1000 to 31600 nM. In assay [1] (HbF ELISA, day 7 EPCs, 5 days), the EC50 was 1000 to 31600 nM.

Take `CCc1c(C#N)c(OCCN(C)C)nc(SC(C(N)=O)c2ccccc2)c1C#N` (stereo not shown) [Example 174, 2-((3,5-Dicyano-6-(2-(dimethylamino)ethoxy)-4-ethylpyridin-2-yl)thio)-2-phenylacetamide]: on DNMT1 (setting [3]), the IC50 was 316 to 1000 nM. The EC50 in assay [1] (HbF ELISA, day 7 EPCs, 5 days) was 316 to 1000 nM.

For `CCc1c(C#N)c(SC(C(N)=O)c2ccccc2)nc(N(C)CCN(C)C)c1C#N` (stereo not shown) [Example 493, 2-((3,5-dicyano-6-((2-(dimethylamino)ethyl)(methyl)amino)-4-ethylpyridin-2-yl)thio)-2-phenylacetamide], on DNMT1 (setting [2]), the “DNMT1 BioChemical (pIC50 category)” value was “D (Category D: ≥6.5)”. In addition, the EC50 in assay [1] (HbF ELISA, day 7 EPCs, 5 days) was 316 to 1000 nM.

As for `CCc1c(C#N)c(SC(C(N)=O)c2ccccc2)nc(N2CCC(NCc3ccccc3)CC2)c1C#N` (stereo not shown) [Example 455, 2-(6-(4-(benzylamino)piperidin-1-yl)-3,5-dicyano-4-ethylpyridin-2-ylthio)-2-phenylacetamide], the “DNMT1 BioChemical (pIC50 category)” value on DNMT1 (setting [2]) was “D (Category D: ≥6.5)”. Also, in assay [1] (HbF ELISA, day 7 EPCs, 5 days), the EC50 was under 316 nM.

As to `CCc1c(C#N)c(SC(C(N)=O)c2ccccc2)nc(N2CC(OP(=O)(O)O)C2)c1C#N` (stereo not shown) [Example 152, 1-(6-((2-Amino-2-oxo-1-phenylethyl)thio)-3,5-dicyano-4-ethylpyridin-2-yl)azetidin-3-yl dihydrogen phosphate], the IC50 on DNMT1 (setting [3]) was 1000 to 31600 nM. In assay [1] (HbF ELISA, day 7 EPCs, 5 days), the EC50 was 1000 to 31600 nM.

In the case of `CCc1c(C#N)c(SC(C(N)=O)c2ccccc2)nc(N(C)CC(=O)NCC(C)(C)CO)c1C#N` (stereo not shown) [Example 685, 2-((6-((2-amino-2-oxo-1-phenylethyl)thio)-3,5-dicyano-4-ethylpyridin-2-yl)(methyl)amino)-N-(3-hydroxy-2,2-dimethylpropyl)acetamide], the “DNMT1 BioChemical (pIC50 category)” value on DNMT1 (setting [2]) is listed as “D (Category D: ≥6.5)”. In addition, the IC50 on DNMT1 (setting [4]) is 316 to 1000 nM and 316 nM. In addition, the EC50 in assay [1] (HbF ELISA, day 7 EPCs, 5 days) is 316 to 1000 nM.

Regarding `CCc1c(C#N)c(SC(C(N)=O)c2ccccc2)nc(N2CCC(N3C(=O)CNC3=O)CC2)c1C#N` (stereo not shown) [Example 250, 2-((3,5-Dicyano-6-(4-(2,5-dioxoimidazolidin-1-yl)piperidin-1-yl)-4-ethylpyridin-2-yl)thio)-2-phenylacetamide], the IC50 on DNMT1 (setting [3]) was 316 to 1000 nM. Further, in assay [1] (HbF ELISA, day 7 EPCs, 5 days), the EC50 was 1000 to 31600 nM.

As for `CCc1c(C#N)c(SC(C(N)=O)c2ccccc2)nc(N2CCC(NCc3ccc(F)cc3)CC2)c1C#N` (stereo not shown) [Example 474, 2-((3,5-dicyano-4-ethyl-6-(4-((4-fluorobenzyl)amino)piperidin-1-yl)pyridin-2-yl)thio)-2-phenylacetamide], the “DNMT1 BioChemical (pIC50 category)” value at DNMT1 (setting [2]) is on record as “D (Category D: ≥6.5)”. For the same compound, in assay [1] (HbF ELISA, day 7 EPCs, 5 days), the EC50 is under 316 nM.

With `CCc1c(C#N)c(SC(C(N)=O)c2ccncc2)nc(N2CCN(C)C(=O)C2)c1C#N` (stereo not shown) [Example 10, 2-{[3,5-dicyano-4-ethyl-6-(4-methyl-3-oxopiperazin-1-yl)pyridin-2-yl]sulfanyl}-2-(pyridin-4-yl)acetamide], at DNMT1 (setting [3]), the IC50 is 316 to 1000 nM. Moreover, the EC50 in assay [1] (HbF ELISA, day 7 EPCs, 5 days) is over 31600 nM.
